Reference: patent US10759799B2, “Indazole containing macrocycles and therapeutic uses thereof” (Samumed, LLC, priority 2018, dated 2020)

Columns and labels:
[1] = tested on: Wnt activity (Sp5-Luc reporter, SW480 colon carcinoma cells); assay: Sp5-Luc reporter gene screening assay for Wnt activity in SW480 cells; assay type: cell-based; details: Homo sapiens; Sp5-Luc reporter, SW480 cells, 36 to 48 hours
Description: The screening assay for Wnt activity is described as follows. Reporter cell lines can be generated by stably transducing cancer cell lines (e.g., colon cancer) or primary cells (e.g., IEC-6 intestinal cells) with a lentiviral construct that includes a Wnt-responsive promoter driving expression of the firefly luciferase gene.
SW480 colon carcinoma cells were transduced with a lentiviral vector expressing luciferase with a human Sp5 promoter consisting of a sequence of eight TCF/LEF binding sites. SW480 cells stably expressing the Sp5-Luc reporter gene and a hygromycin resistance gene were selected by treatment with 150 μg/mL of hygromycin for 7 days. These stably transduced SW480 cells were expanded in cell culture and used for all further screening activities. […] For Sp5-Luc reporter gene assays, the cells were plated at 4,000 cells/well in 384-well plates with a DMEM medium containing 1% fetal bovine serum, and 1% Penicillin-Streptomycin and incubated for 36 to 48 hours at 37° C. and 5% CO2. Following incubation, 15 μl of BriteLite Plus luminescence reagent (Perkin Elmer) was added to each well of the 384-well assay plates. The plates were placed on an orbital shaker for 2 min and then luminescence was quantified using the Envision (Perkin Elmer) plate reader. Readings were normalized to DMSO only treated cells, and normalized activities were utilized for EC50 calculations using the dose-response log (inhibitor) vs. response-variable slope (four parameters) nonlinear regression feature available in GraphPad Prism 5.0 (or Dotmatics).

[2] = target: recombinant GSK3β kinase (Homo sapiens (Human), UniProt P49841); assay: GSK3β kinase assay (Ser/Thr 09 peptide Z-lyte, FRET); assay type: biochemical; details: 46 μM ATP, one hour at room temperature, read-out: EC50 (μM) (IC50 per method)
Sequence of recombinant GSK3β kinase (P49841 whole entry): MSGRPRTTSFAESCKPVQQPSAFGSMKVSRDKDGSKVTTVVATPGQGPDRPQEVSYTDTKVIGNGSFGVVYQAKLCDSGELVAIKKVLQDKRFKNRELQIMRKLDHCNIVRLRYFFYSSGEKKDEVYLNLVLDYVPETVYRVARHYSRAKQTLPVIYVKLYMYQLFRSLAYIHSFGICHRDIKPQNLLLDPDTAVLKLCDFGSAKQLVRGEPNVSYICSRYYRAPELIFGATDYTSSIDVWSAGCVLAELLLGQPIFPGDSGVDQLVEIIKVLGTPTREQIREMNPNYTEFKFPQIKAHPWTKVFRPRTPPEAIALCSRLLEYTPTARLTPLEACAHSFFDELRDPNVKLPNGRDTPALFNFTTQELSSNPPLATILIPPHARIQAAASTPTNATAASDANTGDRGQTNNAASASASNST
Description: Representative compounds were screened using the assay procedure for GSK3β kinase activity as described below.
The GSK3β kinase assay is run using the Ser/Thr 09 peptide Z-lyte assay kit according to manufacturer's instructions (Life Technologies—a Division of Thermo-Fisher). This is a non-radioactive assay using fluorescence resonance energy transfer (FRET) between coumarin and fluorescein to detect kinase activity which is represented as ratio of coumarin emission/fluorescein emission.
Briefly, recombinant GSK3β kinase, ATP and Ser/Thr peptide 09 are prepared in 1× Kinase buffer to final concentrations of 0.04 μg/mL, 46 μM, and 4 μM respectively. The mixture is allowed to incubate with the representative compounds for one hour at room temperature. All reactions were performed in duplicate. Unphosphorylated (“0% Control”) and phosphorylated (“100% control”) forms of […] serve as control reactions.
After incubation, diluted Development Buffer is added to the reaction and allowed to further incubate for one hour at room temperature. The plate is read at Ex 400 Em 455 to detect the coumarin signal and Ex 400 Em 520 to measure the signal (EnVision Multilabel Plate Reader, PerkinElmer).
The Emission ratio (Em) is calculated as a ratio of the coumarin (C) emission signal (at 445 nm)/Fluorescein (F) emission signal (at 520 nm). The percent phosphorylation is then calculated using the following formula: [1−((Em ratio×F100%)−C100%)/((C0%−C100%)+(Em ratio×(F100%−F0%)))].
Dose-response curves are generated and inhibitory concentration (IC50) values are calculated using non-linear regression curve fit in the Dotmatics' Studies Software (Bishops Stortford, UK).

[3] = tested on: SW480 colon carcinoma cells; assay: Cell viability assay (CellTiter-Glo) in SW480 cells; assay type: cell-based; details: Homo sapiens; for EC50: 96 h, SW480 cell viability, four days, CellTiter-Glo
Description: Representative compounds were screened using the assay procedure to assess the effect on cell viability as described below.
SW480 colon carcinoma cells were transduced with a lentiviral vector expressing luciferase with a human Sp5 promoter consisting of a sequence of eight TCF/LEF binding sites. SW480 cells stably expressing the Sp5-Luc reporter gene and a hygromycin resistance gene were selected by treatment with 150 μg/mL of hygromycin for 7 days. These stably transduced SW480 cells were expanded in cell culture and used for all further screening activities.
For the Cell Viability Assays, the cells were plated at 2,000 cells/well in 384-well plates with a DMEM medium containing 1% fetal bovine serum, and 1% Penicillin-Streptomycin and incubated for […] at 37° C. and 5% CO2. Eight replicates of DMSO-treated cells served as controls and cells treated with compound were performed in duplicate.
After incubation, 10 μL of CellTiter-Glo (Promega) was added to each well allowed to incubate for approximately 12 minutes. This reagent “results in cell lysis and generation of a luminescent signal proportional to the amount of ATP present. The amount of ATP is directly proportional to the number of cells present in culture, in agreement with previous reports. The CellTiter-Glo Assay generates a “glow-type” luminescent signal, produced by the luciferase reaction (Promega.com)”.

[4] = tested on: IL-6; assay: IL-6 inhibition in LPS-stimulated human PBMCs (HTRF); assay type: cell-based; details: PBMC; for EC50: huPBMCs, LPS 50 ng/mL, 22 hours, IL-6 HTRF; for inhibition at 10 µM: read-out: percent inhibition at 10 μM
Description: Fresh Normal PB MNC (Catalog # PB001, AllCells, Alameda, Calif.) were shipped overnight at 4° C. and resuspended in Roswell Park Memorial Institute (RPMI) 1640 Medium, with GlutaMAX Supplement (Catalog #61870127, ThermoFisher Scientific, Waltham, Mass.) supplemented with 1% Penicillin-Streptomycin (Catalog #15140163, ThermoFisher Scientific, Waltham, Mass.) and 1% fetal bovine serum (FBS) (Catalog #16140089, ThermoFisher Scientific, Waltham, Mass.) assay media.
Compound Screening: Fresh normal human peripheral blood mononuclear cells (huPBMCs) were resuspended in 1% FBS-RPMI assay media with 1% Penicillin-Streptomycin 1% to a cell concentration of 1×10e6 cells/mL. […] 50 ng/mL of Lipopolysaccharides from Escherichia coli 0111:B4 (Catalog # L5293-2ML, Sigma-Aldrich, St. Louis, Mo.) was added after 2 hours and cells were incubated for another 22 hours at 37° C.-5% CO2. After 22 hour incubation, a mixture of anti-IL6 XL665 and anti-IL-6 Cryptate diluted in reconstitution buffer (Catalog #62IL6PEC, Cisbio Inc., Bedford, Mass.) was added to each well. Following incubation for 3 hours at room temperature, Homogeneous Time-Resolved Fluorescence (HTRF) was measured using the Envision (Perkin Elmer, Shelton, Conn.) at 665 nm and […]. The ratio of fluorescence at 665 nm to 620 nm was used as a readout for IL-6 quantification. All samples were processed in duplicate. Readings were normalized to DMSO treated cells and normalized activities were utilized for EC50 calculations. EC50 was determined using software generated by Dotmatics Limited (Windhill Bishops Stortford Herts, UK) using the Levenberg-Marquardt 4 parameter fitting procedure with finite different gradients.

O=C1CCc2cccc(c2)-c2cccc3[nH]c(nc23)-c2n[nH]c3ccc(cc23)-c2cncc(c2)N1 [Compound 1]
EC50 [1]: 22 nM | IC50 [2]: 0.007 µM | EC50 [3]: 94 nM | EC50 [4]: 381 nM

O=C1CCc2cccc(c2)-c2nccc3[nH]c(nc23)-c2n[nH]c3ccc(cc23)-c2cncc(c2)N1 [Compound 2, (Z)-2^1H,3^1H-5-Aza-2(4,2)-imidazo[4,5-c]pyridina-3 (3,5)-indazola-4(3,5)-pyridina-1(1,3)-benzenacyclooctaphan-6-one]
EC50 [1]: 22 nM | IC50 [2]: 0.001 µM | EC50 [3]: 80 nM | EC50 [4]: 3820 nM

O=C1CCc2cccc(c2)-c2cncc3[nH]c(nc23)-c2n[nH]c3ccc(cc23)-c2cncc(c2)N1 [Compound 3, (Z)-2^3H,3^1H-5-Aza-2(7,2)-imidazo[4,5-c]pyridina-3 (3,5)-indazola-4(3,5)-pyridina-1(1,3)-benzenacyclooctaphan-6-one]
EC50 [1]: 52 nM | IC50 [2]: 0.001 µM | EC50 [3]: 2760 nM | EC50 [4]: > 10000 nM | inhibition at 10 µM [4]: 43.7%

O=C1CCc2cccc(c2)-c2cccc3[nH]c(nc23)-c2n[nH]c3ncc(cc23)-c2cncc(c2)N1 [Compound 5, (Z)-2^1H,3^1H-8-Aza-2(5,3)-pyrazolo[3,4-b]pyridina-3(2,4)-benzo[d]imidazola-1(3,5)-pyridina-4(1,3)-benzenacyclooctaphan-7-one]
EC50 [1]: 124 nM | IC50 [2]: 0.048 µM | EC50 [3]: 407 nM | EC50 [4]: > 10000 nM | inhibition at 10 µM [4]: 9.2%

O=C1CCc2cccc(c2)-c2cccc3[nH]c(nc23)-c2n[nH]c3cnc(cc23)-c2cncc(c2)N1 [Compound 6, (Z)-2^1H,3^1H-8-Aza-2(5,3)-pyrazolo[3,4-c]pyridina-3(2,4)-benzo[d]imidazola-1(3,5)-pyridina-4(1,3)-benzenacyclooctaphan-7-one]
EC50 [1]: 9 nM | IC50 [2]: 0.004 µM | EC50 [3]: 142 nM | EC50 [4]: > 10000 nM | inhibition at 10 µM [4]: 9.5%

O=C1CCc2cccc(c2)-c2cccc3[nH]c(nc23)-c2n[nH]c3ccc(nc23)-c2cncc(c2)N1 [Compound 7, (Z)-2^1H,3^1H-8-Aza-2(5,3)-pyrazolo[4,3-b]pyridina-3 (2,4)-benzo[d]imidazola-1(3,5)-pyridina-4(1,3)-benzenacyclooctaphan-7-one]
EC50 [1]: 437 nM | IC50 [2]: > 10 µM | EC50 [3]: 455 nM | EC50 [4]: > 10000 nM | inhibition at 10 µM [4]: 11.6%

c1cc2cc(c1)-c1cncc3[nH]c(nc13)-c1n[nH]c3ccc(cc13)-c1cncc(c1)CNC2 [Compound 8, (Z)-2^3H,3H-6-Aza-2(7,2)-imidazo[4,5-c]pyridina-3(3,5)-indazola-4(3,5)-pyridina-1(1,3)-benzenacycloheptaphane]
EC50 [1]: 42 nM | IC50 [2]: 0.001 µM | EC50 [3]: 49 nM | EC50 [4]: 65 nM

c1cc2cc(c1)-c1cccc3[nH]c(nc13)-c1n[nH]c3ccc(cc13)-c1cncc(c1)CNC2 [Compound 10, (Z)-2^1H,3^1H-6-Aza-2(5,3),3(2,4)-diindazola-1(3,5)-pyridina-4(1,3)-benzenacycloheptaphane]
EC50 [1]: 11 nM | IC50 [2]: 0.004 µM | EC50 [3]: 26 nM | EC50 [4]: 135 nM

Cn1ncc2c1CNCc1cccc(c1)-c1cccc3[nH]c(nc13)-c1n[nH]c3ccc-2cc13 [Compound 15, (Z)-Methyl-1^1H,2^1H,3^1H-6-aza-2(5,3),3 (2,4)-diindazola-1 (4,5)-pyrazola-4(1,3)-benzenacycloheptaphane]
EC50 [1]: 59 nM | IC50 [2]: 0.01 µM | EC50 [3]: 118 nM | EC50 [4]: 585 nM

CN1Cc2cncc(c2)-c2ccc3[nH]nc(c3c2)-c2nc3c(cccc3[nH]2)-c2cccc(c2)C1 [Compound 22, (Z)-6-Methyl-2^1H,3^1H-6-aza-2(5,3),3(2,4)-diindazola-1(3,5)-pyridina-4(1,3)-benzenacycloheptaphane]
EC50 [1]: 10 nM | IC50 [2]: 0.011 µM | EC50 [3]: 14 nM | EC50 [4]: 161 nM

CN1Cc2cccc(c2)-c2cccc3[nH]c(nc23)-c2n[nH]c3ccc(cc23)-c2cnn(C)c2C1 [Compound 29]
EC50 [1]: 82 nM | IC50 [2]: 0.015 µM | EC50 [3]: 170 nM | EC50 [4]: 241 nM

O=C1COc2cccc(c2)-c2cncc3[nH]c(nc23)-c2n[nH]c3ccc(cc23)-c2cncc(c2)N1 [Compound 38, (Z)-2^3H,3^1H-8-Oxa-5-aza-2(7,2)-imidazo[4,5-c]pyridina-3(3,5)-indazola-4(3,5)-pyridina-1(1,3)-benzenacyclooctaphan-6-one]
EC50 [1]: 87 nM | IC50 [2]: 0.001 µM | EC50 [3]: 415 nM | EC50 [4]: 612 nM

CN1CCCn2cc(nn2)-c2cncc3[nH]c(nc23)-c2n[nH]c3ccc(cc23)-c2cncc(c2)C1 [Compound 45, (1^4Z,2^1Z)-6-Methyl-1 ^1H,2^3H,3^1H-6-aza-2(7,2)-imidazo[4,5-c]pyridina-3(3,5)-indazola-4(3,5)-pyridina-1(4,1)-triazolacyclononaphane]
EC50 [1]: 338 nM | IC50 [2]: 0.001 µM | EC50 [3]: > 10000 nM | inhibition at 10 µM ([3]; SW480, read-out: percent inhibition at 10 μM): 44.1% | EC50 [4]: > 10000 nM | inhibition at 10 µM [4]: 5.9%

CN1CCCCN(C)c2nccc3[nH]c(nc23)-c2n[nH]c3ccc(cc23)-c2cncc(c2)C1 [Compound 51, (Z)-5,10-Dimethyl-1H,2^1H-5,10-diaza-1(2,4)-imidazo[4,5-c]pyridina-2(3,5)-indazola-3(3,5)-pyridinacyclodecaphane]
EC50 [1]: 577 nM | IC50 [2]: 0.002 µM | EC50 [3]: 515 nM | EC50 [4]: 414 nM

c1cc2cc(c1)-c1cccc3[nH]c(nc13)-c1n[nH]c3ccc(cc13)-c1cncc(c1)OCCC2 [Compound 57]
EC50 [1]: 475 nM | IC50 [2]: 1.87 µM | EC50 [3]: 670 nM | EC50 [4]: 3010 nM
